{
  "source": "patent US20230321083A1",
  "about": "“Inhibitors of GPR174 and Uses Thereof” (Omeros Corporation, priority 2016, published 2023)",
  "tested_on": "human PBMCs",
  "test": "Cytokines in culture supernatants of stimulated human PBMCs (ELISA / LEGENDplex)",
  "assay_type": "cell-based",
  "description": "The effect of compound #10 on IL-2 and IFN-γ production in human PBMCs was determined as follows. PBMCs from a single donor were adjusted to a density of 2×10^6 cells/mL, stimulated with 100 ng/mL of anti-CD3 and 100 ng/mL of anti-CD28 antibodies and treated with 1 μM, 3 μM, or 10 μM of compound #10. Supernatant from these cells was taken on day 2 post-stimulation and the levels of IL-2 and IFN-γ were determined by ELISA assay using Ready-SET-Go ELISA kits from Affimetrix Ebioscience according to the manufacturer's instructions.\nThe effect of compound #10 on IL-2 production in human PBMCs was determined as follows. […] Supernatant from these cells was taken on day 3 post-stimulation and the levels of IL-2 were determined by ELISA assay using Ready-SET-Go™ ELISA kits from Affimetrix Ebioscience and LEGENDplex™ bead-based immunoassays from BioLegend according to the manufacturer's instructions.\nThe effect of compound #10 on IL-2 production in human PBMC from each donor was determined as follows. PBMC from each donor were adjusted to a density of 2×10^6 cells/mL, stimulated with 100 ng/mL of anti-CD3 and 100 ng/mL of anti-CD28 antibodies and treated with 30 μM compound #10. Supernatant from these cells was taken on day 2 post-stimulation and the levels of IL-2 were determined by ELISA assay using LEGENDplex™ bead-based immunoassays from BioLegend (San Diego, CA) according to the manufacturer's instructions.\nThe effect of compound #10 on the production of a panel of additional cytokines (interleukin 5 (IL-5), interleukin 13 (IL-13), interleukin 6 (IL-6), interleukin 9 (IL-9), interleukin 10 (IL-10), interferon gamma (IFN-γ), tumor necrosis factor alpha (TNF-α), interleukine 17A (IL-17A), interleukin 17F (IL-17F), interleukin 4 (IL-4) and interleukin 22 (IL-22)) in pooled human PBMC obtained from eight donors was determined as follows. PBMC from eight donors were pooled, then adjusted to a density of 2×10^6 cells/mL, stimulated with 100 ng/mL of anti-CD3 and 100 ng/mL of anti-CD28 antibodies and treated with 30 μM compound #10. Supernatant from these cells was taken on day 2 post-stimulation and the levels of IL-5, IL-13, IL-6, IL-9, IL-10, IFN-γ, TNF-α, IL-17A, IL-17F, IL-4 and IL-22 were determined by ELISA using LEGENDplex™ bead-based immunoassays from BioLegend (San Diego, CA) according to the manufacturer's instructions.",
  "key": {"[1]": {"conditions": "day 2, 30 μM, PBMC from eight donors, p<0.001"}, "[2]": {"conditions": "day 2, 30 μM, PBMC from eight donors, p<0.05"}},
  "data": [
    {"smiles": "CC1CCN(c2cc(N3CCN(S(=O)(=O)c4ccccc4)CC3)c([N+](=O)[O-])cc2F)CC1", "note": "[Compound 10]", "values": [
      {"measurement": "IL-6 in culture supernatants (fold over vehicle)", "setting": "[1]", "result": "statistically significant fold increase"},
      {"measurement": "IL-17A in culture supernatants (fold over vehicle)", "setting": "[1]", "result": "statistically significant fold decrease"},
      {"measurement": "IFN-γ in culture supernatants (fold over vehicle)", "setting": "[2]", "result": "statistically significant fold increase"},
      {"measurement": "IL-10 in culture supernatants (fold over vehicle)", "setting": "[2]", "result": "statistically significant fold increase"},
      {"measurement": "TNF-α in culture supernatants (fold over vehicle)", "setting": "[2]", "result": "statistically significant fold increase"},
      {"measurement": "IL-2 (pg/mL) in culture supernatants", "setting": "day 3 post-stimulation, 3, 10, 30, 60 μM, single donor", "result": "increased IL-2 levels in culture supernatants in a dose-dependent manner"}
    ]}
  ]
}
